Measured values published in PubChem BioAssay AID624113 (National Center for Advancing Translational Sciences (NCATS), 2012).

Test system: mouse plasma stability, percent remaining
Experiment: qHTS Assay for Inhibitors of Bacillus subtilis Sfp phosphopantetheinyl transferase (PPTase): Mouse Plasma Stability
Details: stronger effect = higher value
Source text: The covalent attachment of a phosphopantetheinyl (4'-PP) arm to a variety of synthases and other proteins is a key posttranslational protein modification. The 4'-PP is installed on the proteins post-translationally from coenzyme A (CoA) on a conserved serine residue by action of phosphopantetheinyl transferase (PPTase) enzymes. Phosphopantetheinylation is essential for synthase activity, and removal of the PPTase gene precludes natural product synthesis in microorganisms, or in the case of fatty acid biosynthesis, renders the organism unviable. PPTase enzymes belong to a distinct structural superfamily. Within bacteria, these enzymes are grouped into two classes based upon primary structure, the AcpS-Type and Sfp-Type PPTases.
Sfp-type PPTases, corresponding to an activator of surfactin production in Bacillus subtilis, are responsible for modifying type I polyketide and nonribosomal peptide synthases of prokaryotes. Sfp-type PPTases are responsible for the activation of a variety of pathogen-associated virulence factors. […]
5 uM of compound is incubated with mouse liver microsome; the reference compounds are verapamil and warfarin. Compounds are incubated and samples are analyzed with LC-MS/MS.

percent remaining: 100%
SMILES: COc1ccnc(NC(=S)N2CCN(c3ncc(C(F)(F)F)cc3Cl)CC2)c1
